Reference: patent US11180483B2, “Substituted reverse pyrimidine Bmi-1 inhibitors” (PTC Therapeutics, Inc., priority 2012, dated 2021)

System: Bmi-1
Assay: Sandwich ELISA Assay (Bmi-1 ELISA) in HT-1080 cells
Format: cell-based
How it was run: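 HT-1080 cells exposed to compound in 0.5% final DMSO for 40-48 h at 37 °C, then lysed. Bmi-1 was quantified by sandwich ELISA: mouse monoclonal capture, rabbit anti-Bmi-1 detection, HRP anti-rabbit and TMB. Read at OD450 (OD570 reference) against a recombinant GST-Bmi-1 standard curve (0-8000 pg/mL).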

| EC50 [nM] | SMILES |
| --- | --- |
| 10 to 100 | COCc1nc2ccccc2n1-c1nc(N)c(F)c(Nc2ccc(OC(F)F)cc2)n1 [Cpd 216, N-[4-(difluoromethoxy)phenyl]-5-fluoro-2-[2-(methoxymethyl)-1H-benzimidazol-1-yl]pyrimidine-4,6-diamine] |
| 10 to 100 | COCc1nc2ccccc2n1-c1nc(N)c(F)c(Nc2ccc(C)cc2)n1 [Cpd 217, 5-fluoro-2-[2-(methoxymethyl)-1H-benzimidazol-1-yl]-N-(4-methylphenyl)pyrimidine-4,6-diamine] |
| 1 to 10 | COCc1nc2ccccc2n1-c1nc(N)c(F)c(Nc2ccc(OC)cc2)n1 [Cpd 218, 5-fluoro-2-[2-(methoxymethyl)-1H-benzimidazol-1-yl]-N-(4-methoxyphenyl)pyrimidine-4,6-diamine] |
| 100 to 3000 | COCc1nc2ccccc2n1-c1nc(N)c(F)c(Nc2ccc(Cl)cc2)n1 [Cpd 219, N-(4-chlorophenyl)-5-fluoro-2-[2-(methoxymethyl)-1H-benzimidazol-1-yl]pyrimidine-4,6-diamine] |
| 10 to 100 | COCc1nc2ccccc2n1-c1nc(N)c(F)c(Nc2ccc(C(F)(F)F)cc2)n1 [Cpd 220, 5-fluoro-2-[2-(methoxymethyl)-1H-benzimidazol-1-yl]-N-[4-(trifluoromethyl)phenyl]pyrimidine-4,6-diamine] |
| 100 to 3000 | Cc1nc2ccccc2n1-c1nc(N)cc(Nc2ccc(OC(F)(F)F)cc2)n1 [Cpd 221, 2-(2-methyl-1H-benzimidazol-1-yl)-N-[4-(trifluoromethoxy)phenyl]pyrimidine-4,6-diamine] |
| 100 to 3000 | Cc1nc2ccc(C#N)cc2n1-c1nc(N)c(F)c(Nc2ccc(C(F)(F)F)cc2)n1 [Cpd 222, 1-(4-amino-5-fluoro-6-{[4-(trifluoromethyl)phenyl]amino}pyrimidin-2-yl)-2-methyl-1H-benzimidazole-6-carbonitrile] |
| 100 to 3000 | Cc1nc2ccc(C#N)cc2n1-c1nc(N)c(F)c(Nc2ccc(OC(F)F)cc2)n1 [Cpd 223, 1-(4-amino-6-{[4-(difluoromethoxy)phenyl]amino}-5-fluoropyrimidin-2-yl)-2-methyl-1H-benzimidazole-6-carbonitrile] |
| 10 to 100 | Cc1ccc(Nc2nc(-n3c(C)nc4ccc(C#N)cc43)nc(N)c2F)cc1 [Cpd 224] |
| 10 to 100 | COc1ccc(Nc2nc(-n3c(C)nc4ccc(C#N)cc43)nc(N)c2F)cc1 [Cpd 225, 1-{4-amino-5-fluoro-6-[(4-methoxyphenyl)amino]pyrimidin-2-yl}-2-methyl-1H-benzimidazole-6-carbonitrile] |
| 100 to 3000 | Cc1nc2cc(C#N)ccc2n1-c1nc(N)c(F)c(Nc2ccc(OC(F)F)cc2)n1 [Cpd 226, 1-(4-amino-6-{[4-(difluoromethoxy)phenyl]amino}-5-fluoropyrimidin-2-yl)-2-methyl-1H-benzimidazole-5-carbonitrile] |
| 10 to 100 | Cc1ccc(Nc2nc(-n3c(C)nc4cc(C#N)ccc43)nc(N)c2F)cc1 [Cpd 227, 1-{4-amino-5-fluoro-6-[(4-methylphenyl)amino]pyrimidin-2-yl}-2-methyl-1H-benzimidazole-5-carbonitrile] |
| 10 to 100 | COc1ccc(Nc2nc(-n3c(C)nc4cc(C#N)ccc43)nc(N)c2F)cc1 [Cpd 228] |
| 100 to 3000 | Cc1nc2cc(C#N)ccc2n1-c1nc(N)c(F)c(Nc2ccc(C(F)(F)F)cc2)n1 [Cpd 229, 1-(4-amino-5-fluoro-6-{[4-(trifluoromethyl)phenyl]amino}pyrimidin-2-yl)-2-methyl-1H-benzimidazole-5-carbonitrile] |
| 100 to 3000 | Cc1nc2cc(C#N)ccc2n1-c1nc(N)c(F)c(Nc2ccc(Cl)cc2)n1 [Cpd 230, 1-{4-amino-6-[(4-chlorophenyl)amino]-5-fluoropyrimidin-2-yl}-2-methyl-1H-benzimidazole-5-carbonitrile] |
| 100 to 3000 | Cc1nc2ccc([N+](=O)[O-])cc2n1-c1nc(N)c(F)c(Nc2ccc(OC(F)F)cc2)n1 [Cpd 231, N-[4-(difluoromethoxy)phenyl]-5-fluoro-2-(2-methyl-6-nitro-1H-benzimidazol-1-yl)pyrimidine-4,6-diamine] |
